Results as given in ChEMBL document CHEMBL1154817, “Tartrolon D, a cytotoxic macrodiolide from the marine-derived actinomycete Streptomyces sp. MDG-04-17-069” (J Nat Prod, 2009).
Values after ≈ are worked out from the molar mass of the structure shown.

Columns and labels:
[1] = system: A549; test: Cytotoxicity against human A549 cells after 72 hrs by sulforhodamine B assay; format: functional; conditions: A549, 72 h
[2] = system: HT-29; test: Cytotoxicity against human HT-29 cells after 72 hrs by sulforhodamine B assay; format: functional; conditions: HT-29, 72 h
[3] = system: MDA-MB-231; test: Cytotoxicity against human MDA-MB-231 cells after 72 hrs by sulforhodamine B assay; format: functional; conditions: MDA-MB-231, 72 h
[4] = Inhibition of hypoxia-induced HIF1 transcriptional activity
[5] = system: L929; test: Cytotoxicity against mouse L929 cells; format: functional

Compound | GI50 [1] [nM] | TGI [1] [nM] | GI50 [2] [nM] | TGI [2] [nM] | GI50 [3] [nM] | TGI [3] [nM] | IC50 [4] [µg/mL] | LC50 [1] [nM] | LC50 (concentration killing 50% of cells) [2] [nM] | LC50 (50% lethal concentration) [3] [nM] | MIC [5] [µg/mL]
COc1cccc2c1C(=O)c1c(O)c3c(c(O)c1C2=O)C[C@@](O)(C(C)=O)C[C@@H]3O[C@H]1C[C@H](N)[C@H](O)[C@H](C)O1 [DAUNORUBICIN] | 80 | 170 | 70 | 330 | 20 | 120 |  |  |  |  | 
C[C@@H]1C(=O)C[C@@H](O)CC/C=C/C=C\CC[C@H](C)OC(=O)[C@@H]2O[B-]34O[C@@H](C(=O)O[C@@H](C)CC/C=C\C=C\CC[C@H](O)CC(=O)[C@@H](C)[C@@H]5CC[C@](C)(O)[C@]2(O5)O3)[C@@]2(O[C@H]1CC[C@]2(C)O)O4 [TARTROLON C] |  |  |  |  |  |  | 0.17 |  |  |  | 
C[C@@H]1CC[C@H]2CC(=O)C[C@@H](O)CC/C=C/C=C\CC[C@H](C)OC(=O)C(O)[C@]3(O)O[C@@H](CC[C@H]3C)CC(=O)C[C@@H](O)CC/C=C/C=C\CC[C@H](C)OC(=O)C(O)[C@]1(O)O2 (some centres not stated) [TARTROLON D] | 160 | 1460 | 310 | 1710 | 790 | 3410 |  | 8050 | 8410 | 11000 | 
C[C@@H]1C(=O)C[C@@H](O)CC/C=C/C=C\CC[C@H](C)OC(=O)C(O)[C@]2(O)O[C@@H](CC[C@H]2C)[C@H](C)C(=O)C[C@@H](O)CC/C=C/C=C\CC[C@H](C)OC(=O)C(O)[C@]2(O)O[C@H]1CC[C@H]2C (some centres not stated) [TARTROLON A] |  |  |  |  |  |  |  |  |  |  | 70 (≈ 82.4 µM)
